Each block holds one compound with its values, some of them ahead of it.
Tests used:
SF-295 cells = test: Test A cellular morphology (phalloidin/DAPI staining), SF-295; assay type: cell-based, human
Method: (§1) Cell Culture—SF-295 cells were maintained in RPMI 1640 supplemented with 10% fetal calf serum, and penstreptamycin. A-549 cells were maintained in F-12 media with 10% fetal calf serum and penstreptamycin. Both cell lines were incubated at 37° C. and 5% CO2.
(§2) Cellular Morphology—Cells were plated on sterilized coverslips in 6-well plates and allowed to reach 65% confluency before treatment with indicated compounds. At the conclusion of the treatment interval, cells were rinsed and fixed with 3.7% formaldehyde for 15 minutes. After subsequent rinses in PBS, cells were permeabilized with 0.2% triton X-100 for 4 minutes and rinsed in PBS. Cells were then incubated with 1% BSA for 30 minutes before incubation with phalloidin stain (Molecular Probes, Eugene, Oreg.) for 20 minutes. At the completion of staining interval, cells were rinsed and mounted using Vectashield mounting media containing DAPI (Vector laboratories, Inc., Burlingame, Calif.). Slides were imaged using a Bio-Rad Multi-photon microscope and processed using Image-J software.

A-549 cells = test: Test A cellular morphology (phalloidin/DAPI staining), A-549; assay type: cell-based, human
Method: as §1, §2

[1] = Fluorescence properties of target compounds (Table 1); assay type: physicochemical; conditions: for Absorbtion Maximum / Emission Maximum / Extinction Coefficient: Concentration 50 uM; for Extinction Coefficient: in M-1 cm-1 (unit assumed)
Excerpt: This shift to the green region for the fluorescence emission allows cellular studies on these compounds without any interference from autofluroescence.

SF-295 cell line = test: Test C MTT assay in schweinfurthin sensitive SF-295 cell line; assay type: cell-based, human
Excerpt: (§3) The National Cancer Institute 60 human tumor cell line anti-cancer assay has been used for indicating the schweinfurthin-like activity of various analogues. Additionally, a three pronged approach that allows a more rapid turn around can be used. This three pronged testing scheme involves 1) MTT assay in schweinfurthin sensitive human glioma derived SF-295 cell line; 2) MTT assay in the schweinfurthin resistant human non-small cell lung cancer derived cell line A549; and 3) microscopic observation of cell morphology changes at 24 and 48 hours. Compounds displaying schweinfurthin-like activity show a dramatic change in cell morphology at concentrations consistent with anti-cancer activity. This three pronged testing scheme is a very simple method that has successfully identified compounds with and without schweinfurthin-like activity. Accordingly, in one embodiment the invention provides a method for identifying a compound with schweinfurthin-like activity comprising, subjecting the compound to 1) an MTT assay in a schweinfurthin sensitive human glioma derived SF-295 cell line; 2) an MTT assay in the schweinfurthin resistant human non-small cell lung cancer derived cell line A549; and 3) a microscopic observation of cell morphology changes at one or more preselected time points (e.g. at about 24 or 48 hours).

A549 cell line = test: Test C MTT assay in schweinfurthin resistant A549 cell line; assay type: cell-based, human; conditions: A549 lung cancer line
Excerpt: as §3

[2] = tested on: SF-295 vs. A549 cell lines; test: Test C three pronged testing scheme for schweinfurthin-like activity; assay type: cell-based, human; conditions: for schweinfurthin-like activity: three pronged scheme: MTT SF-295, MTT A549, morphology
Excerpt: as §3

[3] = Compound stability (no method given); assay type: physicochemical

SMILES: COc1cc(C=Cc2cc(O)c(CC=C(C)CCC=C(C)C)c(O)c2)cc2c1OC1(C)CCC(O)C(C)(C)C1C2 (stereo not shown) [3-deoxyschweinfurthin B]
cell morphology (SF-295 cells; 500 nM, 24 hours): morphologic characteristics similar to control cells
cell morphology (SF-295 cells; 500 nM, 48 hours): characteristic changes in cell morphology
cell morphology changes induced by schweinfurthins (SF-295 cells; time points beyond 24 hours): a decrease in cell area and a reduction in F-actin
cell morphology (A-549 cells; 500 nM, 24 hours or 48 hours): does not induce a morphologic change

Absorbtion Maximum [1]: 426
Emission Maximum [1]: 593
Extinction Coefficient [1]: 26500
SMILES: COc1cc(/C=C/c2cc(O)c(/C=C/c3ccc([N+](=O)[O-])cc3)c(O)c2)cc2c1O[C@]1(C)CC[C@@H](O)C(C)(C)[C@H]1C2 [Compound 219]
stokes shift compared with amine compounds 227, 232 and 237 [1]: larger stokes shifts than the amine compounds
activity relative to standard 3-deoxyschweinfurthin B (SF-295 cell line; SF-295 cell line): almost identical activity to the standard 3-deoxyschweinfurthin B
potency rank among compounds tested (SF-295 cell line; Test C scheme): most potent of these compounds
potency relative to 3-deoxyschweinfurthin B (A549 cell line): almost an order of magnitude more potent than 3-deoxyschweinfurthin B
schweinfurthin-like activity [2]: still shows the significant drop in activity in the A549 line vs. the SF-295 line

Absorbtion Maximum [1]: 429
Emission Maximum [1]: 557
Extinction Coefficient [1]: 17902
stability relative to the parent resorcinol [3]: much improved stability
SMILES: COc1cc(/C=C/c2cc3c(c(OC)c2)O[C@]2(C)CC[C@@H](O)C(C)(C)[C@H]2C3)cc(O)c1/C=C/c1ccc([N+](=O)[O-])cc1 [Compound 225]
stokes shift compared with amine compounds 227, 232 and 237 [1]: larger stokes shifts than the amine compounds
activity relative to the parent resorcinol (SF-295 cell line; assay not specified): only slightly diminished activity
schweinfurthin-like activity [2]: displayed activity as expected

SMILES: COc1cc(/C=C/c2cc3c(c(OC)c2)O[C@]2(C)C[C@@H](O)[C@@H](O)C(C)(C)[C@H]2C3)cc(O)c1/C=C/c1ccc([N+](=O)[O-])cc1 [Compound 235]
stokes shift compared with amine compounds 227, 232 and 237 [1]: larger stokes shifts than the amine compounds

SMILES: COc1cc(/C=C/c2cc3c(c(OC)c2)O[C@]2(C)C[C@@H](O)[C@@H](O)C(C)(C)[C@H]2C3)cc(O)c1/C=C/c1ccc(N)cc1 [Compound 237]
potency relative to 3-deoxyschweinfurthin B ([2]; cell line not specified): neither of the amine substituted analogues (227 and 237) were more potent than 3-deoxyschweinfurthin B
activity relative to 3-deoxy compound 227 ([2]; dihydroxylated A-ring vs. 3-deoxy): not significantly more active than the 3-deoxy compound 227
schweinfurthin-like activity [2]: did show all of the hall marks of schweinfurthin like activity

SMILES: C[C@@H](N)[C@H]1CC[C@H](C(=O)Nc2ccncc2)CC1 [Compound Y-27632]
cell morphology (SF-295 cells; 10 μM): caused jagged F-actin at the periphery and long slender projections to form
cell morphology (A-549 cells; 10 μM): induces ruffled F-actin at the edges of the A-549 cells

Source: patent US8637685B2, “Schweinfurthin analogues” (University of Iowa Research Foundation, priority 2008, dated 2014)
